Test results reported in patent US10807992B2, “Single enantiomer antiparasitic compounds” (priority 2017, dated 2020).
Like-named read-outs stand apart in the source and are kept apart here.

Assay: Plasma PK from oral tick and flea efficacy studies of the C1 racemate
Type: in vivo, Mongrel dogs
Details: for Cmax / AUC(0-t) / AUC(0-inf) / half-life / CL/F / Tmax: mongrel, dog, po; for Cmax / AUC(0-t) / AUC(0-inf) / half-life / CL/F / Tmax / tlast: plasma; for AUC(0-t): read-out: NCA AUC0-last
Source text: However, the S- enantiomer plasma PK curves and calculated PK parameters conducted in beagle dogs differed from oral efficacy studies conducted on the racemate dosed in mongrels.
Pharmacokinetic results from the compound C1 (S) enantiomer PK study differed from racemic efficacy studies. Average plasma pharmacokinetic parameters from the compound C1 (S) enantiomer PK study described in this document are compared to those from oral efficacy studies of the racemate in Table 6.

[1] = 10 mg/kg, Flea Efficacy study, oral 10 mg/kg
[2] = 10 mg/kg, Tick Efficacy study, oral 10 mg/kg
[3] = 20 mg/kg, Flea Efficacy study, oral 20 mg/kg
[4] = 20 mg/kg, Tick Efficacy study, oral 20 mg/kg

With O=C(CC(F)(F)F)N1CC2(C1)OCc1cc(C3=NSC(c4cc(Cl)c(F)c(Cl)c4)(C(F)(F)F)C3)ccc12 (racemic) [C1 racemate, 1-[6-[5-(3,5-dichloro-4-fluoro-phenyl)-5-(trifluoromethyl)-4H-isothiazol-3-yl]spiro[1H-isobenzofuran-3,3′-azetidine]-1′-yl]-3,3,3-trifluoro-propan-1-one] the “absorption and elimination in dogs” value (dogs, oral) was “well-absorbed compound with an extended elimination half-life in dogs”, the Cmax (10 mg/kg, Mongrel, Flea Efficacy study, oral 10 mg/kg, read-out: Cmax) was 3470 ng/mL and the AUC(0-t) (10 mg/kg, Mongrel, Flea Efficacy study, oral 10 mg/kg) was 266 µg·h/mL. For the same molecule, the AUC(0-inf) (10 mg/kg, Mongrel, Flea Efficacy study, oral 10 mg/kg, read-out: NCA AUC0-∞) was 361 µg·h/mL, the half-life (10 mg/kg, Mongrel, Flea Efficacy study, oral 10 mg/kg, read-out: t1/2 (converted)) was 23.8 days and the Cmax (10 mg/kg, Mongrel, Tick Efficacy study, oral 10 mg/kg, read-out: Cmax) was 3780 ng/mL. The AUC(0-t) (10 mg/kg, Mongrel, Tick Efficacy study, oral 10 mg/kg) was 344 µg·h/mL, the AUC(0-inf) (10 mg/kg, Mongrel, Tick Efficacy study, oral 10 mg/kg, read-out: NCA AUC0-∞) was 395 µg·h/mL and the half-life (10 mg/kg, Mongrel, Tick Efficacy study, oral 10 mg/kg, read-out: t1/2 (converted)) was 16.4 days. The AUC(0-inf) (10 mg/kg, range over racemate efficacy studies, at 10 mg/kg, read-out: plasma area under the curve extrapolated to infinity (AUC0-∞)) was 361 to 395 µg·h/mL, the Cmax (10 mg/kg, range over racemate efficacy studies, dosed at 10 mg/kg, read-out: plasma Cmax) was 3470 to 3780 ng/mL and the CL/F [1] was 0.643 mL/min/kg. For the same molecule, the Tmax [1] was 0.0417 days, the CL/F [2] was 0.502 mL/min/kg and the Tmax [2] was 0.125 days. For the same molecule, the Cmax (20 mg/kg, Mongrel, Flea Efficacy study, oral 20 mg/kg, read-out: Cmax) was 4740 ng/mL, the AUC(0-t) (20 mg/kg, Mongrel, Flea Efficacy study, oral 20 mg/kg) was 463 µg·h/mL and the AUC(0-inf) (20 mg/kg, Mongrel, Flea Efficacy study, oral 20 mg/kg, read-out: NCA AUC0-∞) was 525 µg·h/mL. For the same molecule, the half-life (20 mg/kg, Mongrel, Flea Efficacy study, oral 20 mg/kg, read-out: t1/2 (converted)) was 14.9 days, the Cmax (20 mg/kg, Mongrel, Tick Efficacy study, oral 20 mg/kg, read-out: Cmax) was 6240 ng/mL and the AUC(0-t) (20 mg/kg, Mongrel, Tick Efficacy study, oral 20 mg/kg) was 494 µg·h/mL. For the same molecule, the AUC(0-inf) (20 mg/kg, Mongrel, Tick Efficacy study, oral 20 mg/kg, read-out: NCA AUC0-∞) was 674 µg·h/mL, the half-life (20 mg/kg, Mongrel, Tick Efficacy study, oral 20 mg/kg, read-out: t1/2 (converted)) was 23.8 days and the CL/F [3] was 0.737 mL/min/kg. It also gave a Tmax [3] of 0.0417 days, a CL/F [4] of 0.693 mL/min/kg and a Tmax [4] of 0.0833 days. It also gave a half-life (range over racemate efficacy studies, read-out: half-life) of 14.9 to 23.8 days, a CL/F (range over racemate efficacy studies) of 0.5 to 0.733 mL/min/kg and a tlast (Mongrel, Flea Efficacy study, oral 10 mg/kg) of 1032 h. It also gave a tlast (Mongrel, Flea Efficacy study, oral 20 mg/kg) of 1032 h, a tlast (Mongrel, Tick Efficacy study, oral 10 mg/kg) of 1056 h and a tlast (Mongrel, Tick Efficacy study, oral 20 mg/kg) of 1056 h.
